Experimental data published in patent US20210332024A1, “MODULATORS OF PIN1 ACTIVITY AND USES THEREOF” (Yeda Research and Development Co. Ltd., priority 2019, published 2021).

What was measured:
MDA-MB-231 cells = experiment: Cell viability assay (CellTiter-Glo); assay type: cell-based; details: cell viability assay with MDA-MB-231 cells
Experimental: MDA-MB-231 cells grew in DMEM medium supplemented with 10% FCS (fetal calf serum), 1% PS (penicillin-streptomycin) and 1% L-glutamine (all from Biological Industries). Exclusion of mycoplasma contamination was monitored and conducted by test with MycoAlert™ kit (Lonza). Cells were trypsinized and counted, and 1000 cells/well were plated in 50 μl of growth medium into 384-well white TC plates (Greiner) using Multidrop™ 384 (Thermo Scientific) Washer Dispenser II. The number of viable cells was monitored using CellTiter-Glo® Luminescent kit (Promega) in accordance with the manufacturer's protocol. Luminescence was measured using luminescence module of PHERAstar™ FS plate reader (BMG Labtech). Data analysis was performed using GeneData 12 analytic software. Assay ready plate preparation: Compounds transferred into black microplates (Greiner 784900) using Labcyte Echo® acoustic dispensing technology. Assay ready plates were then sealed with heat seals. If not used immediately, plates were frozen at −20° C. and held in polypropylene boxes with silica-gel desiccant.
Exemplary Pin1-binding compounds were also tested for non-selective cytotoxicity in a viability assay against IMR90 lung fibroblasts.

GST-Pin1 = GST-Pin1 (Homo sapiens, UniProt Q13526); experiment: Fluorescence polarization (FP) competition assay; assay type: binding; details: FP assay, competition with fluorescein-labeled peptide, 250 nM GST-Pin1; read-out: Ki (apparent)
Experimental: Binding affinity to Pin1 was determined using a fluorescence polarization assay to assess competition with an N-terminal fluorescein-labeled peptide (Bth-D-phosThr-Pip-Nal), which was obtained from JPT Peptide Technologies and Proteintech Group. The indicated concentrations of candidate compound were pre-incubated for 12 hours at 4° C. with a solution containing 250 nM glutathione S-transferase (GST)-Pin1, 5 nM of fluorescein-labeled peptide probe, 10 μg/ml bovine serum albumin, 0.01% Tween-20 and 1 mM DTT (dithiothreitol) in a buffer of 10 mM HEPES, 10 mM NaCl and 1% glycerol (pH 7.4). Measurements of FP were performed in black 384-well plates (Corning) using an EnVision™ reader. Apparent Ki values (under the tested conditions) obtained from the FP assay results were derived from the Kenakin Ki equation:
Kenakin Ki=(Lb)(EC50)(Kd)/(Lo)(Ro)+Lb(Ro−Lo+Lb−Kd)
Sittampalam G. S. et al., Eli Lilly & Company and the National Center for Advancing Translational Sciences, 2004].
Covalent labeling of Pin1 was confirmed to translate into enzyme inhibition via a fluorescence polarization (FP) competition assay using a FITC-labeled substrate mimetic peptide inhibitor, as well as a chymotrypsin-coupled PPIase assay, using procedures described in Wei et al. [Nat Med 2015, 21:457-466].
The fluorescent polarization assay was performed in a dose-dependent and time-dependent manner, in order to further characterize the kinetic parameters of Pin1-3 binding to Pin1.

catalytic domain of Pin1 = molecular target: T1, catalytic domain of Pin1 (Homo sapiens, UniProt Q13526); experiment: Intact protein LC/MS labeling of Pin1; assay type: binding
T1 construct: The purified catalytic domain of Pin1 was incubated with the fragment library
Experimental: 993 compounds were transferred to a 384-well plate working copy by combining 0.5 μl of 20 mM stock solution of four or five compounds per well. The catalytic domain of Pin1 (2 μM) in 20 mM Tris, 75 mM NaCl, pH 7.5 was incubated with 200 μM for each compound and moderately shaken for 24 hours at 4° C. The reaction was stopped by the addition of formic acid to 0.4% (v/v) final concentration.
Liquid chromatography/mass spectroscopy runs were performed on an Acquity™ UPLC® H-class system (Waters) in positive ion mode using electrospray ionization (ESI). UPLC separation was performed on a C4 column (300 Å, 1.7 μM, […]). The column was held at 40° C., and the autosampler at 10° C. Mobile solution A was 0.1% formic acid in water and mobile phase B was 0.1% formic acid in acetonitrile. Run flow was 0.4 ml/minute; and a gradient of 20% B for 2 minutes, increasing linearly to 60% B for 3 minutes, holding at 60% B for 1.5 minutes, changing to 0% B in 0.1 minute and holding at 0% for 1.4 minutes, was used. Desolvation temperature was 500° C. with a flow rate of 1000 liters/hour. The capillary voltage was 0.69 kV and cone voltage 46 V. Raw data was processed using OpenLynx™ software and deconvoluted using the MaxEnt tool. Labeling assignment was performed as described in Resnick et al. [J Am Chem Soc 2019, 141:8951-8968].
For the screening 2 μl of each of the 448 click products as 50 μM DMSO stocks were transferred into a 384-well plate working plate. 48 μl of catalytic domain of Pin1 (2 μM) in 20 mM Tris (pH 7.5) with 75 mM NaCl were added and moderately shaken and incubated for 15 minutes at room temperature. The reaction was stopped by the addition of formic acid to 0.4% (v/v) final concentration (20 μl). The mixtures were analyzed by liquid chromatography/mass spectroscopy analogously to the electrophile library incubations described herein. Hits were retrospectively analyzed by liquid chromatography/mass spectroscopy (LC-MS) to ensure reaction completion.
For each measured well, processed peaks were searched to match the mass of unlabeled protein or common small adducts of the unlabeled protein, which were found in the control sample or labeled protein. Labeling percentage for a compound was determined as the labeling of a specific compound divided by the overall detected protein species. Peaks whose mass could not be assigned were discarded from the overall labeling calculation. Data was analyzed using a python script for processing the MaxEnt-deconvoluted spectra. Peaks were normalized from ion counts to percentages, where the highest peak is defined as 100%. The unlabeled protein mass is deduced from a reference well that contains just the protein.
The purified catalytic domain of Pin1 was incubated with the fragment library (2 μM protein, 200 μM compound; 24 hours at 4° C.), followed by intact protein liquid chromatography/mass-spectrometry (LC/MS) to identify and quantify compound labeling. FIG. 1 depicts an example of a compound identified in this manner.
Based on the docking predictions, a total of 26 compounds that featured a range of small or bulky aliphatic, arylic, biphenylic or heterocyclic side-chains (structures depicted in FIG. 5), were synthesized or purchased. In order to identify potent binders, the irreversible labeling efficiency of these second-generation compounds was assessed alongside the original screening hits under more stringent conditions, with a 1:1 ratio of protein to compound (2 μM compound; 1 hour at room temperature).
For further optimization of the lipophilic moiety, an alkyne side chain-bearing analog was prepared, which was derivatized with 448 different azides using copper-catalyzed azide-alkyne cycloaddition (CuAAC).

[1] = Thiol reactivity assay (DTNB); assay type: physicochemical; details: 200 μM compound, pH 7.4, 37° C.
Experimental: 50 μM DTNB (dithionitrobenzoic acid) was incubated with 200 μM TCEP (tris(2-carboxytehyl)phosphine) in 20 mM sodium phosphate buffer (pH 7.4) with 150 mM NaCl, for 5 minutes at room temperature, in order to obtain TNB^2− (thionitrobenzoate dianion). 200 μM compounds were subsequently added to the TNB^2−, followed by immediate UV absorbance measurement at 412 nm (at 37° C.). The UV absorbance was acquired every 15 minutes for 7 hours. The assay was performed in a 384-well plate using a Spark™ 10M plate reader (Tecan). Background absorbance of compounds was subtracted by measuring the absorbance at 412 nm of each compound under the same conditions without DTNB. Compounds were measured in triplicates. The data was fitted to a second order reaction equation such that the rate constant k is the slope of ln([A][B0]/[B][A0]), where [A0] and [B0] are the initial concentrations of the compound (200 μM) and TNB^2− (100 μM) respectively, and [A] and [B] are the remaining concentrations as a function of time, as determined from the spectrometric measurement. Linear regression using Prism® software was performed to fit the rate against the first four hours of measurements.
In order to estimate the influence of the various lipophilic moieties on “warhead” reactivity [Flanagan et al., J Med Chem 2014, 57:10072-10079; Lonsdale et al., J Chem Inf Model 2017, 57:3124-3137; Dahal et al., Medchemcomm 2016, 7:864-872], the thiol reactivity of the top ten binders of the second and third generation was assessed using a high-throughput assay previously applied to the entire fragment library, as described in Resnick et al. [J Am Chem Soc 2019, 141:8951-8968]. In brief, the second-order rate constant was evaluated for a model thiol, which reflects trends in general reactivity towards thiol groups.

[2] = 2 μM Pin1 with 2 μM test compound for 1 hour at room temperature
[3] = 2 μM Pin1 with 2 μM test compound for 15 minutes at room temperature

T1 sequence (Q13526 52-163 limits assumed): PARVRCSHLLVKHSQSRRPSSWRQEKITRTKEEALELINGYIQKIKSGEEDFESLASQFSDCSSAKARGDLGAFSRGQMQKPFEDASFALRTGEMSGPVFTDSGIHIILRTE
Sequence of GST-Pin1 (Q13526 whole entry): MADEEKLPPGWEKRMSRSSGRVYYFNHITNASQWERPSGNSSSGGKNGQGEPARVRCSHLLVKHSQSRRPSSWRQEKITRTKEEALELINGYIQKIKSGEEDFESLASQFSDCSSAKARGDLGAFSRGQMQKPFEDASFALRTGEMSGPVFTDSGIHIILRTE

EC50 (MDA-MB-231 cells) | Ki (GST-Pin1) | Labeling [%] (catalytic domain of Pin1; [2]) | Labeling [%] (catalytic domain of Pin1; [3]) | EC50 (MDA-MB-231 cells; Homo sapiens) | Structure (SMILES) | Reactivity Log k [1] | Reactivity k [1]
5100 nM | 133 nM | 52% |  |  | Cc1ccsc1CN(C(=O)CCl)C1CCS(=O)(=O)C1 (centres unmarked) [Pin1-2-8] | −6.66 | 2.19e-07 M⁻¹ s⁻¹
5600 nM | 194 nM | 30% |  |  | Cc1cccc(CN(C(=O)CCl)C2CCS(=O)(=O)C2)c1 (centres unmarked) [Pin1-2-6] | −6.80 | 1.58e-07 M⁻¹ s⁻¹
 | 121 nM |  |  |  | O=C(CCl)N(CC1CC1)C1CCS(=O)(=O)C1 (centres unmarked) [Pin1-3-13] | −6.82 | 1.5e-07 M⁻¹ s⁻¹
2800 nM | 58 nM | 50% |  |  | O=C(CCl)N(C1CCS(=O)(=O)C1)C(Cc1ccccc1)c1ccccc1 (centres unmarked) [Pin1-2-1] | −6.96 | 1.09e-07 M⁻¹ s⁻¹
6100 nM | 39 nM | 37% |  |  | O=C(CCl)N(Cc1ccccc1OCc1ccccc1)C1CCS(=O)(=O)C1 (centres unmarked) [Pin1-2-7] | −6.99 | 1.02e-07 M⁻¹ s⁻¹
8900 nM |  | 45% |  |  | O=C(CCl)N(Cc1cccs1)C1CCS(=O)(=O)C1 (centres unmarked) [Pin1-433] | −6.67 | 2.13e-07 M⁻¹ s⁻¹
11300 nM | 83 nM | 43% |  |  | CC1(N(Cc2ccccc2)C(=O)CCl)CCS(=O)(=O)C1 (centres unmarked) [Pin1-2-9] | −7.11 | 7.68e-08 M⁻¹ s⁻¹
 |  |  | 64% |  | O=C(CCl)N(Cc1cn(-c2ccc(CO)c(F)c2)nn1)C1CCS(=O)(=O)C1 (centres unmarked) [Compound P1-01-F08] | −5.88 | 1.32e-06 M⁻¹ s⁻¹
 |  |  | 70% |  | O=C(CCl)N(Cc1cn(-c2cc(Br)ccc2O)nn1)C1CCS(=O)(=O)C1 (centres unmarked) [Compound P1-02-E11] | −5.98 | 1.04e-06 M⁻¹ s⁻¹
 | 46 nM |  | 42% | 7500 nM | O=C(CCl)N(CC1CCCCC1)C1CCS(=O)(=O)C1 (centres unmarked) [Pin1-2-3, 2-chloro-N-(sulfolan-3-yl)-N-(cyclohexylmethyl)acetamide] | −6.82 | 1.53e-07 M⁻¹ s⁻¹
 |  | 21% |  |  | CC(C)CN(C(=O)CCl)C1CCS(=O)(=O)C1 (centres unmarked) [Pin1-3-15, 2-chloro-N-(sulfolan-3-yl)-N-isobutylacetamide] | −7.11 | 7.77e-08 M⁻¹ s⁻¹

Structure (SMILES) | EC50 (MDA-MB-231 cells) | Ki (GST-Pin1) | Labeling [%] (catalytic domain of Pin1; [2]) | Labeling [%] (catalytic domain of Pin1; [3]) | EC50 (MDA-MB-231 cells; Homo sapiens) | Reactivity Log k [1] | Reactivity k [1]
O=C1C=CC(=O)c2c(O)cccc21 [Juglone, 5-hydroxy-1,4-naphthalenedione, reference compound] |  | 1750 nM |  |  |  |  | 
